Test system: 885724-159-R-J1-PDC complex spheroid viability
Assay: Anticancer human tumor 885724-159-R-J1-PDC patient-derived pancreatic adenocarcinoma cell line growth inhibition [GQUAD]
Settings: for IC50: curve of first compound; for viability, T/C: stronger effect = lower value
How it was run: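 Multi-cell-type spheroids of tumor cells with HUVEC and mesenchymal stem cells, treated with drug combinations. Concentrations descend in half-log steps from near clinical Cmax, or from 10 microM where Cmax is unknown; viability read-out.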

[1] = second compound 0.0316 µM, first compound 0.0316 µM
[2] = second compound 0.0316 µM, first compound 0.1 µM
[3] = second compound 0.0316 µM, first compound 0.316 µM
[4] = second compound 0.0316 µM, first compound 1 µM
[5] = second compound 0.0316 µM, first compound 3.16 µM
[6] = second compound 0.0316 µM, first compound 10 µM
[7] = second compound 0.1 µM, first compound 0.0316 µM
[8] = second compound 0.1 µM, first compound 0.1 µM
[9] = second compound 0.1 µM, first compound 0.316 µM
[10] = second compound 0.1 µM, first compound 1 µM
[11] = second compound 0.1 µM, first compound 3.16 µM
[12] = second compound 0.1 µM, first compound 10 µM
[13] = second compound 0.316 µM, first compound 0.0316 µM
[14] = second compound 0.316 µM, first compound 0.1 µM
[15] = second compound 0.316 µM, first compound 0.316 µM
[16] = second compound 0.316 µM, first compound 1 µM
[17] = second compound 0.316 µM, first compound 3.16 µM
[18] = second compound 0.316 µM, first compound 10 µM
[19] = second compound 1 µM, first compound 0.0316 µM
[20] = second compound 1 µM, first compound 0.1 µM
[21] = second compound 1 µM, first compound 0.316 µM
[22] = second compound 1 µM, first compound 1 µM
[23] = second compound 1 µM, first compound 3.16 µM
[24] = second compound 1 µM, first compound 10 µM
[25] = second compound 3.16 µM, first compound 0.0316 µM
[26] = second compound 3.16 µM, first compound 0.1 µM
[27] = second compound 3.16 µM, first compound 0.316 µM
[28] = second compound 3.16 µM, first compound 1 µM
[29] = second compound 3.16 µM, first compound 3.16 µM
[30] = second compound 3.16 µM, first compound 10 µM
[31] = second compound 10 µM, first compound 0.0316 µM
[32] = second compound 10 µM, first compound 0.1 µM
[33] = second compound 10 µM, first compound 0.316 µM
[34] = second compound 10 µM, first compound 1 µM
[35] = second compound 10 µM, first compound 3.16 µM
[36] = second compound 10 µM, first compound 10 µM
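Further: spheroids exposed to agents for seven days before readout.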
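Wherever viability, T/C is given: percent of vehicle control viability where 100% = DMSO wells.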

O=C(c1cc(Cc2n[nH]c(=O)c3ccccc23)ccc1F)N1CCN(C(=O)C2CC2)CC1 + Cc1[nH]c2ccc(F)cc2c1-c1nc2c3cccnc3c3ncccc3c2[nH]1
IC50 (second compound 0.0316 µM): > 10 µM
IC50 (second compound 0.1 µM): > 10 µM
IC50 (second compound 0.316 µM): > 10 µM
IC50 (second compound 1 µM): > 10 µM
IC50 (second compound 3.16 µM): < 0.0316 µM
IC50 (second compound 10 µM): > 10 µM
viability, T/C [1]: 99.1%
viability, T/C [2]: 94.3%
viability, T/C [3]: 103%
viability, T/C [4]: 84.5%
viability, T/C [5]: 89.2%
viability, T/C [6]: 87.9%
viability, T/C [7]: 102%
viability, T/C [8]: 111%
viability, T/C [9]: 92.2%
viability, T/C [10]: 92.6%
viability, T/C [11]: 103%
viability, T/C [12]: 78.1%
viability, T/C [13]: 85.5%
viability, T/C [14]: 88.7%
viability, T/C [15]: 90.3%
viability, T/C [16]: 79.1%
viability, T/C [17]: 96.2%
viability, T/C [18]: 72.9%
viability, T/C [19]: 71.1%
viability, T/C [20]: 71.1%
viability, T/C [21]: 77.2%
viability, T/C [22]: 65.3%
viability, T/C [23]: 76.8%
viability, T/C [24]: 65.6%
viability, T/C [25]: 41.3%
viability, T/C [26]: 39.9%
viability, T/C [27]: 56.6%
viability, T/C [28]: 34.7%
viability, T/C [29]: 49.8%
viability, T/C [30]: 45.5%
viability, T/C [31]: 64.7%
viability, T/C [32]: 70.5%
viability, T/C [33]: 76.8%
viability, T/C [34]: 72.3%
viability, T/C [35]: 70.6%
viability, T/C [36]: 63.3%

CC1COCCN1c1cc(-c2ccnn2C)c2ccnc(-c3ccn[nH]3)c2n1 (stereo unspecified) + CN(C)c1ccc(Nc2c3ccc(NC(=O)CCN4CCCC4)cc3nc3cc(NC(=O)CCN4CCCC4)ccc23)cc1
IC50 (second compound 0.0316 µM): 7.55 µM
IC50 (second compound 0.1 µM): 8.81 µM
IC50 (second compound 0.316 µM): > 10 µM
IC50 (second compound 1 µM): 2.12 µM
IC50 (second compound 3.16 µM): 1.68 µM
IC50 (second compound 10 µM): 1.28 µM
viability, T/C [1]: 91.5%
viability, T/C [2]: 85.6%
viability, T/C [3]: 71.7%
viability, T/C [4]: 65%
viability, T/C [5]: 53.7%
viability, T/C [6]: 48.7%
viability, T/C [7]: 99.8%
viability, T/C [8]: 87%
viability, T/C [9]: 70.9%
viability, T/C [10]: 67%
viability, T/C [11]: 48.1%
viability, T/C [12]: 51.9%
viability, T/C [13]: 95.7%
viability, T/C [14]: 76.4%
viability, T/C [15]: 86.9%
viability, T/C [16]: 64.5%
viability, T/C [17]: 52.7%
viability, T/C [18]: 48.6%
viability, T/C [19]: 86.8%
viability, T/C [20]: 68.5%
viability, T/C [21]: 63.8%
viability, T/C [22]: 53.6%
viability, T/C [23]: 50%
viability, T/C [24]: 42.1%
viability, T/C [25]: 87.5%
viability, T/C [26]: 74.8%
viability, T/C [27]: 72.7%
viability, T/C [28]: 54.9%
viability, T/C [29]: 41.8%
viability, T/C [30]: 39.5%
viability, T/C [31]: 74.2%
viability, T/C [32]: 72.3%
viability, T/C [33]: 52.8%
viability, T/C [34]: 59.5%
viability, T/C [35]: 39%
viability, T/C [36]: 36.2%

CC(C)(O)C1CCC(Nc2ccc3ncc(-c4cccc(C(F)(F)F)c4)n3n2)CC1 (stereo unspecified) + Cc1cnc(CNC(=O)c2c(=O)c3ccc(N4CCCN(C)CC4)nc3n3c2sc2ccccc23)cn1
IC50 (second compound 0.0316 µM): 3.14 µM
IC50 (second compound 0.1 µM): 4.18 µM
IC50 (second compound 0.316 µM): 3.88 µM
IC50 (second compound 1 µM): 2.61 µM
IC50 (second compound 3.16 µM): 1.19 µM
IC50 (second compound 10 µM): 1.04 µM
viability, T/C [1]: 112%
viability, T/C [2]: 86.4%
viability, T/C [3]: 93.2%
viability, T/C [4]: 70.3%
viability, T/C [5]: 44.2%
viability, T/C [6]: 40.6%
viability, T/C [7]: 108%
viability, T/C [8]: 103%
viability, T/C [9]: 91.2%
viability, T/C [10]: 79.1%
viability, T/C [11]: 45.5%
viability, T/C [12]: 48.1%
viability, T/C [13]: 94%
viability, T/C [14]: 89.9%
viability, T/C [15]: 79.4%
viability, T/C [16]: 71.1%
viability, T/C [17]: 50.4%
viability, T/C [18]: 39.9%
viability, T/C [19]: 88.5%
viability, T/C [20]: 73.2%
viability, T/C [21]: 77.2%
viability, T/C [22]: 67%
viability, T/C [23]: 45.2%
viability, T/C [24]: 36.7%
viability, T/C [25]: 73.8%
viability, T/C [26]: 65.6%
viability, T/C [27]: 64.9%
viability, T/C [28]: 55%
viability, T/C [29]: 28.4%
viability, T/C [30]: 11.7%
viability, T/C [31]: 62%
viability, T/C [32]: 69.4%
viability, T/C [33]: 62.5%
viability, T/C [34]: 51.8%
viability, T/C [35]: 9.65%
viability, T/C [36]: 0.29%

— PubChem BioAssay AID2060502 (Molecular Pharmacology Branch, DTP, NCI, 2025)
